Laboratory results as given in PubChem BioAssay (NCI).
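Grown in 96-well plates, cells were treated for 48 hours with each compound at five concentrations. Insufficient inhibition: endpoint recorded as highest concentration tested. Definition used: TGI = concentration required for complete inhibition of growth.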

Experiments:
Experiment in all cases: growth of human tumour cells (NCI), 48 h
[1] = system: HL-60(TB) leukemia
[2] = system: NCI-H522 lung
[3] = system: NCI-H460 lung
[4] = system: RXF 393 renal
[5] = system: HOP-92 NSCLC
[6] = system: NCI-H23 lung
[7] = system: NCI-H226 lung
[8] = system: SNB-19 CNS
[9] = system: COLO 205 colon
[10] = system: DU-145 prostate
[11] = system: U251 CNS
[12] = system: SR leukemia
[13] = system: RPMI-8226 leukemia
[14] = system: MDA-MB-435
[15] = system: UACC-62 melanoma
[16] = system: EKVX NSCLC
[17] = system: SK-OV-3 ovarian
[18] = system: SN12C renal
[19] = system: SNB-75 CNS
[20] = system: A498 renal
[21] = system: T-47D breast
[22] = system: PC-3 prostate
[23] = system: UACC-257 melanoma
[24] = system: HT29 colon
[25] = system: MOLT-4 leukemia
[26] = system: HCT-116 colon
[27] = system: SK-MEL-5 melanoma
[28] = system: SF-295 CNS
[29] = system: OVCAR-5 ovarian
[30] = system: HCT-15 colon
[31] = system: A549 NSCLC
[32] = system: OVCAR-3 ovarian
[33] = system: OVCAR-8 ovarian
[34] = system: LOX IMVI melanoma
[35] = system: K-562 leukemia
[36] = system: CCRF-CEM leukemia
[37] = system: MCF7 breast
[38] = system: OVCAR-4 ovarian
[39] = system: SF-268 CNS
[40] = system: HS 578T breast
[41] = system: NCI/ADR-RES ovarian
[42] = system: M14 melanoma
[43] = system: HOP-62 NSCLC
[44] = system: TK-10 renal
[45] = system: SF-539 CNS
[46] = system: ACHN renal
[47] = system: SK-MEL-2 melanoma
[48] = system: SW-620 colon
[49] = system: IGROV1 ovarian
[50] = system: CAKI-1 renal
[51] = system: 786-0 renal
[52] = system: MDA-MB-231 breast
[53] = system: SK-MEL-28 melanoma
[54] = system: HCC-2998 colon
[55] = system: BT-549 breast
[56] = system: UO-31 renal
[57] = system: KM12 colon

## C[C@@H](CCO)OC1OC(COC(=O)C(C)(C)C)C(OC(=O)C(C)(C)C)C(OC(=O)C(C)(C)C)C1OC(=O)C(C)(C)C (stereo partly specified)
[1]
  TGI: 62.5 µM
[2]
  TGI: 95.7 µM
[3]
  TGI: 36.6 µM
[4]
  TGI: 61 µM
[5]
  TGI: > 100 µM
[6]
  TGI: > 100 µM
[7]
  TGI: > 100 µM
[8]
  TGI: > 100 µM
[9]
  TGI: > 100 µM
[10]
  TGI: > 100 µM
[11]
  TGI: > 100 µM
[12]
  TGI: > 100 µM
[13]
  TGI: 81.8 µM
[14]
  TGI: > 100 µM
[15]
  TGI: > 100 µM
[16]
  TGI: > 100 µM
[17]
  TGI: > 100 µM
[18]
  TGI: > 100 µM
[19]
  TGI: > 100 µM
[20]
  TGI: > 100 µM
[21]
  TGI: > 100 µM
[22]
  TGI: > 100 µM
[23]
  TGI: > 100 µM
[24]
  TGI: 35.7 µM
[25]
  TGI: > 100 µM
[26]
  TGI: > 100 µM
[27]
  TGI: 58.1 µM
[28]
  TGI: 76.7 µM
[29]
  TGI: > 100 µM
[30]
  TGI: > 100 µM
[31]
  TGI: > 100 µM
[32]
  TGI: > 100 µM
[33]
  TGI: > 100 µM
[34]
  TGI: > 100 µM
[35]
  TGI: > 100 µM
[36]
  TGI: > 100 µM
[37]
  TGI: > 100 µM
[38]
  TGI: > 100 µM
[39]
  TGI: > 100 µM
[40]
  TGI: > 100 µM
[41]
  TGI: > 100 µM
[42]
  TGI: > 100 µM
[43]
  TGI: > 100 µM
[44]
  TGI: > 100 µM
[45]
  TGI: > 100 µM
[46]
  TGI: > 100 µM
[47]
  TGI: > 100 µM
[48]
  TGI: > 100 µM
[49]
  TGI: > 100 µM
[50]
  TGI: > 100 µM
[51]
  TGI: > 100 µM
[52]
  TGI: 25.9 µM
[53]
  TGI: > 100 µM
[54]
  TGI: 31.4 µM
[55]
  TGI: > 100 µM

## Oc1ccc(C[C@@H]2CN[C@H](Cc3ccc(O)c(Br)c3)CN2)cc1
[1]
  TGI: > 100 µM
[2]
  TGI: > 100 µM
[4]
  TGI: > 100 µM
[5]
  TGI: > 100 µM
[6]
  TGI: > 100 µM
[7]
  TGI: > 100 µM
[9]
  TGI: > 100 µM
[10]
  TGI: > 100 µM
[11]
  TGI: > 100 µM
[12]
  TGI: > 100 µM
[14]
  TGI: > 100 µM
[15]
  TGI: > 100 µM
[16]
  TGI: > 100 µM
[17]
  TGI: > 100 µM
[18]
  TGI: > 100 µM
[19]
  TGI: > 100 µM
[20]
  TGI: > 100 µM
[21]
  TGI: > 100 µM
[22]
  TGI: > 100 µM
[23]
  TGI: > 100 µM
[24]
  TGI: > 100 µM
[25]
  TGI: > 100 µM
[26]
  TGI: > 100 µM
[28]
  TGI: > 100 µM
[29]
  TGI: > 100 µM
[30]
  TGI: > 100 µM
[31]
  TGI: > 100 µM
[32]
  TGI: > 100 µM
[33]
  TGI: > 100 µM
[36]
  TGI: > 100 µM
[56]
  TGI: > 100 µM
[37]
  TGI: > 100 µM
[57]
  TGI: > 100 µM
[38]
  TGI: > 100 µM
[39]
  TGI: > 100 µM
[40]
  TGI: > 100 µM
[41]
  TGI: > 100 µM
[42]
  TGI: > 100 µM
[43]
  TGI: > 100 µM
[44]
  TGI: > 100 µM
[45]
  TGI: > 100 µM
[46]
  TGI: > 100 µM
[47]
  TGI: > 100 µM
[48]
  TGI: > 100 µM
[49]
  TGI: > 100 µM
[50]
  TGI: > 100 µM
[51]
  TGI: > 100 µM
[52]
  TGI: > 100 µM
[53]
  TGI: > 100 µM
[54]
  TGI: > 100 µM
[55]
  TGI: > 100 µM
